Experiments:
CB1 (rCB1) [1] = molecular target: T1, CB1 (rCB1) (Rattus norvegicus, UniProt P20272); assay: Radioligand competition binding, [3H]-CP-55,940, rat brain membranes; settings: for pKi [95% CI]: rCB1; for Ki: read-out: Ki [95% CI], rCB1, [3H]-CP-55,940
CB1 (rCB1) [2] = molecular target: T1, CB1 (rCB1); assay: Single-point radioligand displacement screen; format: binding; settings: for % 1H-CP-55,940 displacement (mean) from single point screen: 10 µM, 1 µM or 300 nM by cell colour (not visible); for rep1_displacement / rep2_displacement / rep3_displacement: Figure 1c source data; for rep1_displacement: replicate 1; for rep2_displacement: replicate 2; for rep3_displacement: replicate 3; for % radioligand displacement [S.D]: single point at 10 µM, three replicates

T1 sequence (P20272 whole entry): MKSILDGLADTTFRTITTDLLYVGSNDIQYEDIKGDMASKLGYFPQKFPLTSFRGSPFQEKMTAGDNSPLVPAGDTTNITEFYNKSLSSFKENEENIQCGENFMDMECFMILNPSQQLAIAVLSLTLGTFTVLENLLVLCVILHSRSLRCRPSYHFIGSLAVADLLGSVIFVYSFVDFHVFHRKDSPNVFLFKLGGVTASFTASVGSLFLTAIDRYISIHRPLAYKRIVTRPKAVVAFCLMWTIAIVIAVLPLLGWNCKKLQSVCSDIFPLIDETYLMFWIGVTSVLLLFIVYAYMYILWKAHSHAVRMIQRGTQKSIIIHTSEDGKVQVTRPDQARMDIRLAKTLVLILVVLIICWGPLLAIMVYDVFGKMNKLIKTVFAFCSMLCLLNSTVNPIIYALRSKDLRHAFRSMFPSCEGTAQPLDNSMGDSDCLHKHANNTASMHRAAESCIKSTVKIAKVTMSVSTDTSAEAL

Row | SMILES | % 1H-CP-55,940 displacement (mean) from single point screen (CB1 (rCB1) [2]) [%] | rep1_displacement (CB1 (rCB1) [2]) | rep2_displacement (CB1 (rCB1) [2]) | rep3_displacement (CB1 (rCB1) [2]) | other results
1 | CCCCCCC(C)(C)c1cc(O)c2c(c1)OC(C)(C)C1CCC(=O)CC21 (stereo not shown) [Nabilone, reference compound] |  |  |  |  | pKi [95% CI] (CB1 (rCB1) [1]): 8.6 [8.4 – 8.9]; Ki (CB1 (rCB1) [1]): 2.3 nM
2 | COC(=O)C(OC(=O)c1cc(C)n(-c2ccc(F)cc2)n1)c1ccccc1 (stereo not shown) [compound 62406] | -3.66 |  |  |  | 
3 | CCOC(=O)C1(NC(=O)c2cc(C)n(-c3cccc(Cl)c3)n2)CCCCC1 [compound 64801] | 31.60 |  |  |  | 
4 | CCOC(=O)C(NC(=O)c1cc(C)n(-c2cccc(F)c2)n1)C1CCOCC1 (stereo not shown) [compound 64854] | -2.51 |  |  |  | 
5 | COc1cc(C(=O)OCC2CCCN2c2ccc(C)nn2)ccc1Cl (stereo not shown) [compound 65703] | 17.38 | 11.4 | 18.4 | 22.4 | 
6 | Cn1ncc2c(N3CCC(COCc4ccccc4)C3)nc(Cl)nc21 (stereo not shown) [compound 66978] | -5.01 | 10 | -21.7 | -3.3 | 
7 | O=C(OCc1ncnn1-c1ccccc1)c1csc(Cc2ccccc2F)n1 [compound 67565] | 8.02 | 8 |  | 8 | 
8 | COC(=O)[C@@H](NC(=O)c1cc(C)n(-c2cccc(Cl)c2)n1)c1ccc(OC)cc1 [compound 69543] | 10.83 |  |  |  | 
9 | CC1OCCC12CN(C(=O)c1oc3ccccc3c1COc1ccccc1)CCO2 (stereo not shown) [compound 70889] | 46.62 | 47.8 | 46.3 | 45.8 | 
10 | CC(O)C1CCCN(C(=O)c2cc(Oc3cccc(Br)c3)ccn2)C1 (stereo not shown) [compound 74717] | 17.22 | 25.4 | 11.4 | 14.8 | 
11 | Cc1cc(C(=O)NC(c2cccnc2)C2CC2)nn1-c1cccc(C#N)c1 (stereo not shown) [compound 74836] | 33.29 | 34.5 | 34.8 | 30.5 | 
12 | Cc1onc(-c2ccccc2)c1C(=O)OCc1cn2cc(Cl)ccc2n1 [compound 74872] | 49.60 | 51.6 | 49.2 | 48 | 
13 | COC(=O)C(OC(=O)c1cc(C)n(-c2cccc(Cl)c2)n1)c1ccsc1 (stereo not shown) [compound 75729] | 29.65 | 32.1 | 28 | 28.8 | 
14 | COC(=O)[C@H]1Cc2ccccc2CN1C(=O)c1cc(C)n(-c2cccc(F)c2)n1 [compound 76400] | -1.48 |  |  |  | 
15 | O=C(NCC1CSc2ccccc2O1)c1cn(Cc2ccccc2)nn1 (stereo not shown) [compound 78184] | 28.43 |  |  |  | 
16 | Cc1cc(C(=O)NC(c2cccs2)C(C)(C)CO)nn1-c1cccc(Cl)c1 (stereo not shown) [compound 78220] | 5.56 |  |  |  | 
17 | O=C(OCC1CSc2ccccc2O1)c1ccc(Oc2cccnc2)cc1 (stereo not shown) [compound 82778] | 26.16 |  |  |  | 
18 | CCCC1CN(C(=O)c2cc(Oc3cccc(Br)c3)ccn2)CCO1 (stereo not shown) [compound 83628] | 12.80 | 14 | 14.4 | 10.1 | 
19 | CN(C)c1cc(-c2nc(Cc3ccc4c(c3)OCCO4)no2)c2ccccc2n1 [compound 85562] | 44.88 | 45.9 | 44.2 | 44.5 | 
20 | O=C(OCC1CSc2ccccc2O1)c1csc(Cc2ccccc2)n1 (stereo not shown) [compound 86798] | 2.04 |  |  |  | 

Row | SMILES | % 1H-CP-55,940 displacement (mean) from single point screen (CB1 (rCB1) [2]) [%] | rep1_displacement (CB1 (rCB1) [2]) | rep2_displacement (CB1 (rCB1) [2]) | rep3_displacement (CB1 (rCB1) [2]) | other results
21 | CCOc1cncc(NC(=O)c2cc(C)n(-c3cccc(Cl)c3)n2)n1 [compound 88160] | -5.87 |  |  |  | 
22 | Cc1cc(C(=O)NC(c2ccccc2)c2ccco2)nn1-c1cccc(F)c1 (stereo not shown) [compound 88684] | 39.72 |  |  |  | 
23 | COC(=O)CC(NC(=O)c1cc(C)n(-c2ccc(OC)cc2)n1)c1cccs1 (stereo not shown) [compound 90711] | 7.24 |  |  |  | 
24 | O=C(OCc1ccc(Cl)cc1-n1cncn1)c1ccnc(OC2CCC2)c1 [compound 91451] | 17.98 | 15.6 | 20.4 |  | 
25 | COC1CCn2cc(C(=O)NCC(Cc3ccccc3)c3ccccc3)nc2C1 (stereo not shown) [compound 96198] | 18.71 | 19.2 | 20.5 | 16.4 | 
26 | Cc1nc(CC2CC2)oc1-c1nc(Cc2ccc3c(c2)OCO3)no1 [compound 97058] | 17.45 |  |  |  | 
27 | Cc1ccccc1-n1c(=O)c2ccccc2n2c(SC[C@H]3CCCO3)nnc12 [compound 97662] | 18.48 | 20.6 | 19.4 | 15.5 | 
28 | COc1ccc(Cl)c(-c2cc(C(=O)N3CCOC[C@@H]3CC(C)C)on2)c1 [compound 97878] | 33.55 | 62.5 | 14.5 | 23.7 | 
29 | O=C1Cc2cc(-c3csc(Cc4ccc(F)cc4)n3)cc3c2N1CCC3 [‘1038] | 53.57 | 56.9 | 51.4 | 52.5 | % radioligand displacement [S.D] (CB1 (rCB1) [2]): 53.6% [2.91]
30 | COC(=O)[C@H](c1cccs1)N(C)C(=O)c1cc(C)n(-c2cccc(C(F)(F)F)c2)n1 [‘1066] |  |  |  |  | pKi [95% CI] (CB1 (rCB1) [1]): 5.8 [5.4 – 6.1]; Ki (CB1 (rCB1) [1]): 1720 nM
31 | O=c1ccc(-c2nc(C(F)(F)c3ccc(F)cc3)no2)nn1-c1ccc(F)cc1 [‘2443] | 51.06 | 53.4 | 54.3 | 45.5 | % radioligand displacement [S.D] (CB1 (rCB1) [2]): 51.1% [4.87]
32 | CC(=O)C(C)(NC(=O)c1cc(C)n(-c2cccc(C(F)(F)F)c2)n1)c1cccs1 (stereo not shown) [‘4156] |  |  |  |  | pKi [95% CI] (CB1 (rCB1) [1]): 7.9 [7.5 – 8.2]; Ki (CB1 (rCB1) [1]): 13.5 nM
33 | Cc1cc(C(=O)NC(C)(c2ccccc2)c2ccco2)nn1-c1cccc(C(F)(F)F)c1 (stereo not shown) [‘5806] |  |  |  |  | pKi [95% CI] (CB1 (rCB1) [1]): 8.1 [7.7 – 8.5]; fold improvement in CB1R affinity (CB1 (rCB1) [1]; vs parent hit or analog without the change): ~15 fold
34 | COC(=O)[C@@H](c1cccs1)N(C)C(=O)c1cc(C)n(-c2cccc(C(F)(F)F)c2)n1 [‘6000] |  |  |  |  | pKi [95% CI] (CB1 (rCB1) [1]): 5.8 [5.7 – 6.0]; Ki (CB1 (rCB1) [1]): 1460 nM
35 | COC(=O)C(c1ccco1)N(C)C(=O)c1cc(C)n(-c2cccc(C(F)(F)F)c2)n1 (stereo not shown) [‘6425] |  |  |  |  | pKi [95% CI] (CB1 (rCB1) [1]): 6.0 [5.8 – 6.2]; Ki (CB1 (rCB1) [1]): 934 nM
36 | COc1cccc(C2(C)CCN(C(=O)CC34CCCCC3C4(F)F)C2)c1 (stereo not shown) [‘7218] | 52.18 | 43.4 | 33 | 80.2 | % radioligand displacement [S.D] (CB1 (rCB1) [2]): 52.2% [24.79]
37 | O=C(CCc1ccccc1)c1cn(C2(c3ccc(F)cc3)CCOCC2)nn1 [‘7337] | 56.96 | 60.4 | 55.9 | 54.6 | % radioligand displacement [S.D] (CB1 (rCB1) [2]): 57.0% [3.04]
38 | Cc1cc(C(=O)Nc2ccnn2-c2cccc(Cl)c2)nn1[C@H](C)C1CC1 [‘7902] | 57.08 | 57 | 57.3 | 57 | % radioligand displacement [S.D] (CB1 (rCB1) [2]): 57.1% [0.02]
39 | COC(=O)C(NC(=O)c1cc(-c2ccccc2)n(-c2cccc(C(F)(F)F)c2)n1)c1cccs1 (stereo not shown) [‘8079] |  |  |  |  | pKi [95% CI] (CB1 (rCB1) [1]): 7.7 [7.6 – 7.9]; Ki (CB1 (rCB1) [1]): 18.5 nM

— PMC11882969 (Nature Communications, 2025)
